This is an account of results in patent publication US20040224987A1, “Crystalline form C of omeprazole sodium and the related process of its preparation, a crystalline form D of omeprazole sodium and the related process of its preparation, and a process for preparation of crystalline form a of omeprazole sodium” (DR. REDDY'S LABORATORIES LIMITED, priority 2003, published 2004).

SMILES strings stand for the structures. Like-named read-outs stand apart in the source and are kept apart here.

Series [1] in a line: hygroscopicity of crystalline forms of omeprazole sodium. Particulars: forms obtained by the processes of the invention. It counts as physicochemical.
For series [2] the following is noted: Form-A prepared according to Example 3 of WO99/00380, dried substance with one strongly bound water molecule, normal conditions; cited from earlier work.
The conditions of series [3]: cited from earlier work; for physical stability: forms disclosed in WO 99/00380.
Series [4] can be described thus: stability of crystalline forms of omeprazole sodium.

Regarding `COc1ccc2[n-]c([S+]([O-])Cc3ncc(C)c(OC)c3C)nc2c1.[Na+]` (stereo not drawn) [Form C, omeprazole sodium], in series [1], the hygroscopicity result is on record as “less hygroscopic than Form A”.
The same measure, in the same setting: to `COc1ccc2[n-]c([S+]([O-])Cc3ncc(C)c(OC)c3C)nc2c1.[Na+]` (stereo not drawn) [Form D, omeprazole sodium] belongs “non-hygroscopic”.
Turning to `COc1ccc2[n-]c([S+]([O-])Cc3ncc(C)c(OC)c3C)nc2c1.[Na+]` (stereo not drawn) [Form-A, omeprazole sodium], the figures for the hygroscopicity result in series [1] and in series [2] were “non-hydroscopic” and “very hygroscopic”, respectively. Also, the thermodynamic stability entry in series [3] (Form-A produced according to Example 3 of WO 99/00380) is recorded as “thermodynamically unstable”; in series [4] (Form-A obtained by the process of the invention, compared with prior art processes), “thermodynamically more stable”. Besides, in series [4] (forms obtained by the processes of the invention), the “stability (kind not specified)” value was “stable”.
Take `COc1ccc2[n-]c([S+]([O-])Cc3ncc(C)c(OC)c3C)nc2c1.[Na+]` (stereo not drawn) [Form-B, omeprazole sodium]: in series [3], the physical stability result was “physically stable”.
For the molecule `COc1ccc2[n-]c([S+]([O-])Cc3ncc(C)c(OC)c3C)nc2c1.[Na+]` (stereo not drawn) [Form-X, omeprazole sodium], in series [3], the physical stability result is “physically unstable”.
